Laboratory results from PubChem BioAssay AID2252 (Southern Research Specialized Biocontainment Screening …, 2010).

Tested on: THP-1 viability, CellTiter-Glo luminescence, 72 h
Assay: PubChem AID 2252

Structure (SMILES)	EC50 [µM]
Cn1c(N/N=C/c2c[nH]c3ccccc23)nc2ccccc21	8.11
COC(=O)C1C(O)C(C)C(O)C(C)/C=C\C=C(/C)C(=O)Nc2c(C)c(OC(C)=O)c3c(c2O)C(=O)C(C)=C2OCOC(=C23)/C(C)=C/C(C)(O)C(O)C(C)C1O (centres undefined)	< 0.1
O=C(/C=C/c1ccccc1)NC(=S)NNC(=O)c1cnccn1	4.6
Cc1cccc(/C(N)=N/OC(=O)N2CCOCC2)c1	8.03
C#CCOCCOCCOCCNc1nc(N2CCN(C(=O)CCCCCCCCCCNC(=O)[C@H]([C@@H](C)CC)n3cc(CCCCN=C(N)N)nn3)CC2)nc(N2CCN(C(=O)CCCCCCCCCCNC(=O)[C@H](CCCCN)n3cc(C)nn3)CC2)n1	3.57
CN(C)CCNC(=O)/C(=C/c1ccc(-c2ccc(Cl)cc2)o1)NC(=O)c1ccccc1	11.3
C#CCOCCOCCOCCNc1nc(N2CCN(C(=O)CCCCCCCCCCNC(=O)[C@H](CCCCN)n3cc(CCO)nn3)CC2)nc(N2CCN(C(=O)CCCCCCCCCCNC(=O)[C@H](CCCN=C(N)N)n3cc(C[C@@H](C)CC)nn3)CC2)n1	11.3
Cc1ccc(C(=O)Sc2cccccc2=O)cc1	2.27
C=CCNc1ncnc2c1[nH]c1ccc(C)cc12	29.5
COc1nccnc1NS(=O)(=O)c1ccc(N=Cc2c(C)[nH]n(-c3ccc(C)c(C)c3)c2=O)cc1	14.4
CCOC(=O)C1=C(c2ccccc2)NC(N)=NC1c1ccc(OCc2ccc(C(=O)OC)cc2)cc1 (centres undefined)	7.56
NC(N)=N/N=C/c1ccc(OCc2ccccc2Cl)cc1	3.15
O=C(C[n+]1cnn(CC(=O)c2ccc(Cl)cc2Cl)c1)c1ccc([N+](=O)[O-])cc1	26.4
C#CCOCCOCCOCCNc1nc(N2CCN(C(=O)CCCCCCCCCCNC(=O)Cn3cc(C[C@@H](C)O)nn3)CC2)nc(N2CCN(C(=O)CCCCCCCCCCNC(=O)[C@@H]([C@H](C)CC)n3cc(CCCCCN)nn3)CC2)n1	9.97
COc1ccc(/C=N/Nc2cc(C)nc3c(C)cccc23)cc1	5.61
c1ccc(CNc2nc(N3CCN(Cc4ccccc4)CC3)nc3ccccc23)cc1	8.41
c1ccc2cc3c(NCCN4CCOCC4)ccnc3cc2c1	3.7
CCOc1ccc(-c2c[n+]3c(n2-c2ccccc2)CCCCC3)cc1	25.6
C[C@H]1c2cccc(O)c2C(O)=C2C(=O)[C@]3(O)C(O)=C(C(N)=O)C(=O)[C@@H](N(C)C)[C@@H]3[C@@H](O)[C@@H]21	29
Nc1nonc1-n1nnc(C(=O)N/N=C/c2cc(Br)ccc2O)c1CSC1=NCCS1	1.29
Fc1ccc(NC(=S)Nc2cc(-c3ccccc3)[nH]n2)cc1Cl	41.9
CN1CCN(C(c2cccc(Cl)c2)c2ccccc2Cl)CC1 (centres undefined)	35

Structure (SMILES)	EC50 [µM]
CCCCc1ccc(NC2=NCCCS2)cc1	21.3
CC(C(=O)c1ccc(-c2ccccc2)cc1)[n+]1cccc(NC(=O)c2ccccc2)c1 (centres undefined)	17.7
CNCc1c(OCc2ccccc2F)ccc2ccccc12	15.2
Cc1nn(-c2ccccc2)c(C)c1/C=N/n1c(-c2ccc(C(C)(C)C)cc2)n[nH]c1=S	32.1
CC1(C)CC(N2CCN(c3ccccc3)CC2)=CC(=[N+]2CCCC2)C1	8.86
CCOc1ccc(Nc2nc(NCC3CCCO3)c3ccccc3n2)cc1 (centres undefined)	2.28
CC1CCN(CCOCCOc2ccc(Br)cc2Cl)CC1	32.9
O=C(Nc1nnc(C(F)(F)F)s1)c1ccc(Br)s1	22.2
OCCCNc1c2ccccc2nc2ccccc12	2.13
[O-][n+]1c2c(c3c4non(O)c4ccc31)CCCC2	47.7
COc1cc2c(cc1O)[C@H](Cc1ccc(Oc3cc(C[C@@H]4NCCc5cc(OC)c(O)cc54)ccc3O)cc1)NCC2	48.3
CCCCCCCSc1cc(OC)c(CCN(C)C)cc1OC	9.51
CCCCC(=O)NNC(=S)NC(=O)CCC	46
CCCCCOc1ccc(C)cc1CN(CCCl)CCCl	28.9
CCc1nn(CCCN2CCN(c3cccc(Cl)c3)CC2)c(=O)n1CCOc1ccccc1	42.4
COc1cccc(-c2nnc(NC(=O)c3ccc(Cl)s3)o2)c1	15
COc1ccc(/C=N/NC(=O)c2cc3c(OC)ccc(OC)c3[nH]2)cc1O	2.53
CC1CCC(C(C)C)C(OC(=O)Cn2c(-c3ccc(Br)cc3)[n+](C)c3ccccc32)C1 (centres undefined)	2.16
c1ccc(CN2CCC(Nc3nc(-c4ccccc4)nc4ccccc34)CC2)cc1	17.6
O=C(NC(=S)NNC(=O)c1ccco1)c1ccc(Br)cc1	19.7
COc1ccc(N2CC(C(=O)N/N=C/c3cc([N+](=O)[O-])ccc3O)CC2=O)cc1 (centres undefined)	17.7
CCOC(=O)C1=C(O)c2ccccc2C(=O)/C1=C\c1ccc(C)cc1	23.3
